# According to patent US20230293407A1, “Compositions Comprising (Bio)-Alkanediols with Antimicrobials for Product Protection” (Symrise AG, priority 2020, published 2023):
# Legend:
# Staphylococcus aureus = experiment: preservation efficacy test (PET), European Pharmacopoeia 5.1.3; format: cell-based
# yeast = experiment: preservation efficacy test (PET), overview of the effect against yeast; format: cell-based, Candida albicans; conditions: PET in a shampoo formulation, result in words on Table 8
# Escherichia coli = experiment: preservation efficacy test (PET), European Pharmacopoeia 5.1.3; format: cell-based; conditions: for number of microorganisms, 7 days / number of microorganisms, 14 days / number of microorganisms, 28 days / number of microorganisms, 2 days: Escherichia coli (EC)
# Pseudomonas aeruginosa = experiment: as above; format: cell-based
# Candida albicans = experiment: as above; format: cell-based
# [1] = maximum water solubility of alkanediols, visual observation; format: physicochemical; conditions: ambient temperature after 24 h storage at 5° C.
# Excerpt: The water solubility of a substance is the saturation mass concentration of the substance in water at a given temperature. The determination of the solubility in water relates to essentially pure substances which are stable in water and not volatile. The determination of the water solubility of the alkanediols is further described in the following Example 2.
# For the determination of the maximum water solubility of an alkanediol, water and different concentrations of the respective alkanediol were blended by stirring. […] The determination of whether the alkanediol has dissolved in water is based entirely on visual observation.
# Aspergillus brasiliensis = experiment: preservation efficacy test (PET), European Pharmacopoeia 5.1.3; format: cell-based; conditions: Aspergillus brasiliensis (AB); for number of microorganisms, 28 days: 28 days after inoculation; for number of microorganisms, 14 days: 14 days after inoculation
# [2] = 7 days after inoculation, o/w emulsion (Table 53)
# [3] = 7 days after inoculation, substance at given % in test formulation
# [4] = 14 days after inoculation, o/w emulsion (Table 53)
# [5] = 14 days after inoculation, substance at given % in test formulation
# [6] = 28 days after inoculation, o/w emulsion (Table 53)
# [7] = 28 days after inoculation, substance at given % in test formulation
# [8] = PET in shampoo, Staphylococcus aureus (SA), 14 days after inoculation
# [9] = PET in shampoo, Staphylococcus aureus (SA), 28 days after inoculation
# [10] = PET, Staphylococcus aureus (SA), 28 days after inoculation
# [11] = 2 days after inoculation, o/w emulsion (Table 53)
# [12] = 2 days after inoculation, substance at given % in test formulation
# [13] = PET in shampoo, Candida albicans (CA), 28 days after inoculation
# [14] = PET, Staphylococcus aureus (SA), 7 days after inoculation
# [15] = PET, Staphylococcus aureus (SA), 14 days after inoculation
# [16] = PET, Candida albicans (CA), 28 days after inoculation
# [17] = PET in shampoo, listed as 0,1% 2,3 Nonanediol
compound,measurement,setting,value
"CCCCC(O)C(C)O (stereo not shown) [2,3-heptanediol]","germ count SA, 7 days",Staphylococcus aureus; [2],790.000
same,"SA germ count, 7 days",Staphylococcus aureus; [3],790.000
same,"germ count SA, 14 days",Staphylococcus aureus; [4],55
same,"SA germ count, 14 days",Staphylococcus aureus; [5],55
same,"germ count SA, 28 days",Staphylococcus aureus; [6],1
same,"SA germ count, 28 days",Staphylococcus aureus; [7],1
same,"number of microorganisms, 14 days",Staphylococcus aureus; [8],1
same,"number of microorganisms, 28 days",Staphylococcus aureus; [9],1
same,"number of microorganisms, 28 days",Staphylococcus aureus; [10],1
same,antimicrobial efficacy against yeast,yeast,antimicrobial efficacy
same,"germ count EC, 2 days",Escherichia coli; [11],170.000
same,"EC germ count, 2 days",Escherichia coli; [12],170.000
same,"germ count EC, 7 days",Escherichia coli; [2],1.600
same,"EC germ count, 7 days",Escherichia coli; [3],1.600
same,"germ count EC, 14 days",Escherichia coli; [4],82
same,"EC germ count, 14 days",Escherichia coli; [5],82
same,"germ count EC, 28 days",Escherichia coli; [6],1
same,"EC germ count, 28 days",Escherichia coli; [7],1
same,"number of microorganisms, 7 days","Escherichia coli; PET in shampoo, 7 days after inoculation, listed as 0,4% 2,3 Heptandiol",100.000
same,"number of microorganisms, 14 days","Escherichia coli; PET in shampoo, 14 days after inoculation, listed as 0,4% 2,3 Heptandiol",75.000
same,"number of microorganisms, 28 days","Escherichia coli; PET in shampoo, 28 days after inoculation, listed as 0,4% 2,3 Heptandiol",380.000
same,"number of microorganisms, 28 days","Escherichia coli; PET, 28 days after inoculation",1
same,"germ count PA, 2 days",Pseudomonas aeruginosa; [11],1
same,"PA germ count, 2 days",Pseudomonas aeruginosa; [12],1
same,"germ count PA, 7 days",Pseudomonas aeruginosa; [2],1
same,"PA germ count, 7 days",Pseudomonas aeruginosa; [3],1
same,"germ count PA, 14 days",Pseudomonas aeruginosa; [4],1
same,"PA germ count, 14 days",Pseudomonas aeruginosa; [5],1
same,"germ count PA, 28 days",Pseudomonas aeruginosa; [6],1
same,"PA germ count, 28 days",Pseudomonas aeruginosa; [7],1
same,"germ count CA, 28 days",Candida albicans; [6],370.000
same,"CA germ count, 28 days",Candida albicans; [7],370.000
same,"number of microorganisms, 28 days",Candida albicans; [13],1
same,Maximum solubility in water,[1],3.6 % by weight
CCCCCCC(O)CO (stereo not shown) [Hydrolite ® 8],Maximum solubility in water,[1],0.5 % by weight
"CCCCCCCC(O)CO (stereo not shown) [1,2-Nonanediol]","number of microorganisms, 2 days","Staphylococcus aureus; PET, Staphylococcus aureus (SA), 2 days after inoculation",2.300
same,"number of microorganisms, 7 days",Staphylococcus aureus; [14],1
same,"number of microorganisms, 14 days",Staphylococcus aureus; [15],1
same,"number of microorganisms, 28 days",Staphylococcus aureus; [10],1
same,"number of microorganisms, 2 days","Escherichia coli; PET, 2 days after inoculation",6.700
same,"number of microorganisms, 7 days","Escherichia coli; PET, 7 days after inoculation",1
same,"number of microorganisms, 14 days","Escherichia coli; PET, 14 days after inoculation",1
same,"number of microorganisms, 28 days","Escherichia coli; PET, 28 days after inoculation",1
same,"number of microorganisms, 7 days","Candida albicans; PET, Candida albicans (CA), 7 days after inoculation",120.000
same,"number of microorganisms, 14 days","Candida albicans; PET, Candida albicans (CA), 14 days after inoculation",890
same,"number of microorganisms, 28 days",Candida albicans; [16],1
same,Maximum solubility in water,[1],0.1 % by weight
same,"number of microorganisms, 28 days",Aspergillus brasiliensis; PET,900.000
"CCCCCCC(O)C(C)O (stereo not shown) [2,3-nonanediol]","number of microorganisms, 14 days",Staphylococcus aureus; [8],1
same,"number of microorganisms, 28 days",Staphylococcus aureus; [9],1
same,"number of microorganisms, 7 days",Staphylococcus aureus; [14],66.000
same,"number of microorganisms, 14 days",Staphylococcus aureus; [15],1
same,"number of microorganisms, 28 days",Staphylococcus aureus; [10],1
same,antimicrobial efficacy against yeast,yeast,antimicrobial efficacy
same,"number of microorganisms, 2 days","Escherichia coli; PET, 2 days after inoculation",810.000
same,"number of microorganisms, 7 days","Escherichia coli; PET, 7 days after inoculation",27.000
same,"number of microorganisms, 14 days","Escherichia coli; PET, 14 days after inoculation",1.100
same,"number of microorganisms, 28 days","Escherichia coli; PET, 28 days after inoculation",1
same,"number of microorganisms, 28 days",Candida albicans; [13],1
same,"number of microorganisms, 28 days",Candida albicans; [16],970.000
same,Maximum solubility in water,[1],0.3 % by weight
same,"number of microorganisms, 14 days",Aspergillus brasiliensis; [17],680.000
same,"number of microorganisms, 28 days",Aspergillus brasiliensis; [17],530.000
same,"number of microorganisms, 14 days",Aspergillus brasiliensis; PET,890.000
